Values after ≈ are worked out from the molar mass of the structure shown.
Assays:
[1] = tested on: Helicobacter pylori; test: Agar dilution test (inhibition of growth in vitro on agar plates); format: cell-based; conditions: Columbia agar (Oxoid), growth period of 4 days; for MIC50: Helicobacter pylori, 96 h, read-out: approx. MIC50
[2] = tested on: Helicobacter pylori; test: Helicobacter pylori eradication rate in vivo (urease test); conditions: infected gerbils, 50 mg/kg by tube, 3 × daily, 4 days; urease test of antrum tissue four weeks after last treatment
Experimental: Determination of the Helicobacter Pylori Eradication Rate in Vivo
Gerbils were infected on days 1, 3, and 5 with a suspension containing 108-109 Helicobacter pylori bacteria per animal. […] Beginning on day 36, the gerbils were treated on four successive days—three times daily at 07.30, 11.30, and 15.00 hours—with a placebo or the test substance, using a tube. Four weeks after the last treatment, the gerbils were sacrificed using CO2. A tissue sample of the antrum was introduced into the urease test solution and incubated at 37° C. for 24 hours. Changes in color of the solution from yellow to violet, which resulted from the increase in pH caused by the formation of NH3 from the urease, were detected. The eradication rate was calculated as the percentage of animals whose stomach tissue sample gave a negative urease test.
Conditions Under Which the Animals Were Kept:
Groups of 5-10 gerbils per cage (type IV Macrolon cage) were kept at an ambient temperature of 23±2° C. and a relative humidity of 50±10%. They were fed ad libitum with NAFAG feed No. 9439 for rats and mice (NAFAG AG, CH-2900, Gosseu, Switzerland) and had free access to mains water during the experiment.
The substances administered are referenced in table C below using numbers which correspond to the numbers of the compounds in the examples.

[3] = tested on: E. coli; test: Inhibition of growth in vitro in liquid culture (NanoOrange fluorescence); format: cell-based; conditions: Escherichia coli, 24 hours incubation
Experimental: (§1) Determination of the Inhibition of Growth in Vitro in Liquid Culture
(§2) The principle of the technique is based on the detection of the multiplication of, for example, Helicobacter pylori in liquid culture using BHI/6% FCS medium. The method ensures linear fluorescence increase in the range from […].
(§3) The bacterial culture was distributed with an initial density of 1-3×10^8 microbes/ml in a 96-well MTP in 100 μl aliquots. The test substances in a concentration of […] in a final concentration of 1% DMSO were added to these minicultures. These MTPs were then incubated under microaerobic conditions (Anaerokult, Merck) and with shaking at 37° C. for 24 hours. Following the 24-hour incubation, the minicultures were transferred to filter MTPs and washed twice with isotonic buffer (filtered off with suction, taken up, shaken) and finally were taken up in double-distilled water and shaken, and an aliquot was transferred to a new MTP. This aliquot was admixed with the fluorescent dye NanoOrange (Molecular Probes) in accordance with the manufacturer's instructions. Development of protein detection took piece at 90° C. in a pressure-secured sandwich technique. After the plates had cooled, the fluorescence was measured on a plate reader at 549 nm. […] This calculation was made using origin, sigmoidal curve adaptation by means of the ‘logistic’ algorithm.

[4] = tested on: Helicobacter pylori; test: as above; format: cell-based; conditions: BHI/6% FCS medium, 24 hours, 37° C., microaerobic, 1% DMSO
Experimental: as §1, §2, §3

Cc1nc(C)c(Cl)c(NCc2ccc(Oc3ccc4ncc([N+](=O)[O-])n4n3)cc2)n1 [Compound 1, (5-Chloro-2,6-dimethylpyrimidin-4-yl)[4-(3-nitroimidazo[1,2-b]pyridazin-6-yloxy)benzyl]amine]
MIC50 [1]: ~0.005 µg/mL (≈ 0.0117 µM)
Eradication rate [2]: 100%
IC50 [3]: > 1000 nM
IC50 [4]: 26 nM
melting point: 203 °C

Cc1nc(C)c(Cl)c(NCc2cccc(Oc3ccc4ncc([N+](=O)[O-])n4n3)c2)n1 [Compound 3, (5-Chloro-2,6-dimethylpyrimidin-4-yl)[3-(3-nitroimidazo[1,2-b]pyridazin-6-yloxy)benzyl]-amine]
MIC50 [1]: ~0.05 µg/mL (≈ 0.117 µM)
melting point: 222 to 223 °C

COc1cc(CNc2nc(C)nc(C)c2Cl)ccc1Oc1ccc2ncc([N+](=O)[O-])n2n1 [Compound 4, (5-Chloro-2,6-dimethylpyrimidin-4-yl)[3-methoxy-4-(3-nitroimidazo[1,2-b]pyridazin-6-yloxy)-benzyl]amine]
MIC50 [1]: ~0.001 µg/mL (≈ 0.00219 µM)
Eradication rate [2]: 100%
melting point: 229 to 232 °C

Cc1nc(C)c(Cl)c(NCc2ccc(Oc3ccc4ncc([N+](=O)[O-])n4n3)c(OCC3CC3)c2)n1 [Compound 6, (5-Chloro-2,6-dimethylpyrimidin-4-yl)[3-cyclopropylmethoxy-4-(3-nitroimidazo[1,2-b]pyridazin-6-yloxy)benzyl]amine]
melting point: 178 to 180 °C

Cc1nc(C)c(Cl)c(NCc2ccc(Oc3ccc4ncc([N+](=O)[O-])n4n3)c(OC(F)F)c2)n1 [Compound 8, (5-Chloro-2,6-dimethylpyrimidin-4-yl)[3-(1,1-difluoromethoxy)-4-(3-nitroimidazo[1,2-b]pyridazin-6-yloxy)benzyl]amine]
MIC50 [1]: ~0.01 µg/mL (≈ 0.0203 µM)
Eradication rate [2]: 100%
melting point: 191 to 193.5 °C

Cc1nc(C)c(Cl)c(NCc2ccc(Oc3ccc4ncc([N+](=O)[O-])n4n3)c(C)c2)n1 [Compound 9, (5-Chloro-2,6-dimethylpyrimidin-4-yl)[3-methyl-4-(3-nitroimidazo[1,2-b]pyridazin-6-yloxy)-benzyl]amine]
MIC50 [1]: ~0.001 µg/mL (≈ 0.00227 µM)
melting point: 183 to 185 °C

Cc1nc(C)c(Cl)c(NCc2ccc(Oc3ccc4ncc([N+](=O)[O-])n4n3)c(F)c2)n1 [Compound 10, (5-Chloro-2,6-dimethylpyrimidin-4-yl)[3-fluoro-4-(3-nitroimidazo[1,2-b]pyridazin-6-yloxy)-benzyl]amine]
MIC50 [1]: ~0.01 µg/mL (≈ 0.0225 µM)
Eradication rate [2]: 100%
melting point: 193 to 196 °C

Cc1nc(C)c(Cl)c(NCc2ccc(Oc3ccc4ncc([N+](=O)[O-])n4n3)cc2F)n1 [Compound 11, (5-Chloro-2,6-dimethylpyrimidin-4-yl)[2-fluoro-4-(3-nitroimidazo[1,2-b]pyridazin-6-yloxy)-benzyl]amine]
MIC50 [1]: ~0.01 µg/mL (≈ 0.0225 µM)
Eradication rate [2]: 100%
melting point: 147 to 149 °C

Cc1nc(C)c(Cl)c(NCc2ccc(Oc3ccc4ncc([N+](=O)[O-])n4n3)c(OCC(F)(F)F)c2)n1 [Compound 12, (5-Chloro-2,6-dimethylpyrimidin-4-yl)[4-(3-nitroimidazo[1,2-b]pyridazin-6-yloxy)-3-(2,2,2-trifluoroethoxy)benzyl]amine]
MIC50 [1]: ~0.01 µg/mL (≈ 0.0191 µM)
melting point: 185 to 188 °C

COc1cc(CNc2nc(C)nc(C)c2Cl)cc(Oc2ccc3ncc([N+](=O)[O-])n3n2)c1 [Compound 13, (5-Chloro-2,6-dimethylpyrimidin-4-yl)[3-methoxy-5-(3-nitroimidazo[1,2-b]pyridazin-6-yloxy)-benzyl]amine]
melting point: 198 to 199 °C

Cc1nc(C)c(Cl)c(NCc2cc(O)cc(Oc3ccc4ncc([N+](=O)[O-])n4n3)c2)n1 [Compound 14, 3-[(5-Chloro-2,6-dimethylpyrimidin-4-ylamino)methyl]-5-(3-nitroimidazo[1,2-b]pyridazin-6-yloxy)phenol]
MIC50 [1]: ~0.01 µg/mL (≈ 0.0226 µM)
melting point: 263 °C

Cc1nc(C)c(Cl)c(NCc2cc(Oc3ccc4ncc([N+](=O)[O-])n4n3)ccc2F)n1 [Compound 15, (5-Chloro-2,6-dimethylpyrimidin-4-yl)[2-fluoro-5-(3-nitroimidazo[1,2-b]pyridazin-6-yloxy)-benzyl]amine]
MIC50 [1]: ~0.001 µg/mL (≈ 0.00225 µM)

COc1cc(CNc2nc(C)nc(C)c2Cl)cc(Br)c1Oc1ccc2ncc([N+](=O)[O-])n2n1 [Compound 16, [3-Bromo-5-methoxy-4-(3-nitroimidazo[1,2-b]pyridazin-6-yloxy)benzyl](5-chloro-2,6-dimethyl-pyrimidin-4-yl)amine]
Eradication rate [2]: 100%
melting point: 230 to 234 °C

O=[N+]([O-])c1cnc2ccc(Oc3ccc(CNc4ncncc4Cl)cc3)nn12 [Compound 17, (5-Chloro-pyrimidin-4-yl)-[4-(3-nitro-imidazo[1,2-b]pyridazin-6-yloxy)-benzyl]-amine]
melting point: 185 °C

Cc1nc(C)c(Cl)c(NCc2ccc(Oc3ccc4ncc([N+](=O)[O-])n4n3)c(O)c2)n1 [Compound 18, (5-Chloro-2,6-dimethyl-pyrimidin-4-yl)-[4-(3-nitro-imidazo[1,2-b]pyridazin-6-yloxy)-5-hydroxy-benzyl]-amine]
melting point: > 114 °C

(5-Chloro-2,6-dimethylpyrimidin-4-yl)[4-methoxy-3-nitroimidazo[1,2-b]pyridazin-6-yloxy)-benzyl]amino [Compound 5]
approx. MIC50 [1]: ~0.05 µg/mL

— US6818642B2, “Benzylaminopyrimidines” (Altana Pharma AG, priority 2001, dated 2004)
